# Results from patent US20260285853A1, “COMPOUNDS AND METHODS FOR MODULATING SPLICING” (REMIX THERAPEUTICS INC., priority 2023, published 2026).
# How the values were obtained:
# Assay type in all cases: cell-based
# HTT mRNA [1] = test: Splicing RT-qPCR assay (THP), Table 2A; conditions: Table 2A (THP); for AC50: AJ mRNA increase, read-out: HTT AJ (increase in alternative junction mRNA, AC50); for IC50: CJ mRNA decrease, read-out: HTT CJ (decrease in canonical junction mRNA, IC50)
# MYB mRNA [2] = test: Splicing RT-qPCR assay (THP), Table 2A; conditions: Table 2A (THP); for AC50: AJ mRNA increase, read-out: MYB AJ (increase in alternative junction mRNA, AC50); for IC50: CJ mRNA decrease, read-out: MYB CJ (decrease in canonical junction mRNA, IC50)
# HTT mRNA [3] = test: Gene panel canonical junction qPCR assay, decrease in CJ mRNA, Table 3; conditions: decrease in canonical junction (CJ) mRNA, gene panel qPCR, Table 3
# Outline: (§1)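 Cells: A673 or K562; 24 h compound exposure, 37 °C, 5% CO2; 11-pt 3-fold series from 10 uM final; DMSO ≤0.25%. Lysate → cDNA → qPCR with junction-spanning primers/probe for CJ transcript. ΔCt vs housekeeper, ΔΔCt vs DMSO, 2^(−ΔΔCt), % response, 4PL → IC50.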
# MYB mRNA [4] = test: as above; conditions: decrease in canonical junction (CJ) mRNA, gene panel qPCR, Table 3
# Outline: as §1
# [5] = test system: SH-SY5Y (human neuroblastoma) cells; test: Cell viability, Cell Titer Glo 2.0 assay; conditions: read-out: Viability SHSY5Y.3 GI50
# Outline: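 CellTiter-Glo 2.0 luminescence read-out after 72 h compound exposure (37 °C, 5% CO2); medium-only wells as blank. DMSO 0.1% final.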
SMILES,AC50 (HTT mRNA [1]),IC50 (HTT mRNA [1]),AC50 (MYB mRNA [2]),IC50 (MYB mRNA [2]),IC50 (HTT mRNA [3]),IC50 (MYB mRNA [4]),GI50 [5]
"CCNC1CCN(c2ccc(C(=O)Nc3cc4cn(C)nc4cc3OC)c3nn(C)cc23)CC1 [Compound 388, 4-[4-(ethylamino)-1-piperidyl]-N-(6-methoxy-2-methyl-indazol-5-yl)-2-methyl-indazole-7-carboxamide]",1 to 10 µM,1 to 10 µM,0.1 to 1 µM,0.1 to 1 µM,1 to 10 µM,0.1 to 1 µM,1 to 10 µM
"COc1c(NC(=O)c2c(F)cc(N3CCC(NC45CC(C4)C5)CC3)c3cn(C)nc23)cn2cc(C)nc2c1F [Compound 389, 4-[4-(1-bicyclo[1.1.1]pentanylamino)-1-piperidyl]-6-fluoro-N-(8-fluoro-7-methoxy-2-methylimidazo-[1,2-a]pyridin-6-yl)-2-methyl-indazole-7-carboxamide]",0.1 to 1 µM,0.1 to 1 µM,< 0.1 µM,< 0.1 µM,0.1 to 1 µM,< 0.1 µM,< 0.1 µM
"CCNC1CCN(c2cc(F)c(C(=O)Nc3cn4cc(C)nc(C#N)c4n3)c3nn(C)cc23)CC1 [Compound 390, N-(8-cyano-6-methyl-imidazo[1,2-a]pyrazin-2-yl)-4-[4-(ethylamino)-1-piperidyl]-6-fluoro-2-methyl-indazole-7-carboxamide]",> 10 µM,> 10 µM,< 0.1 µM,0.1 to 1 µM,> 10 µM,0.1 to 1 µM,1 to 10 µM
"CCNC1CCN(c2cc(F)c(C(=O)Nc3cn4cc(C)nc(Cl)c4n3)c3nn(C)cc23)CC1 [Compound 391, N-(8-chloro-6-methyl-imidazo[1,2-a]-pyrazin-2-yl)-4-[4-(ethylamino)-1-piperidyl]-6-fluoro-2-methyl-indazole-7-carboxamide]",> 10 µM,> 10 µM,< 0.1 µM,< 0.1 µM,> 10 µM,< 0.1 µM,0.1 to 1 µM
"Cc1cn2cc(NC(=O)c3c(F)cc(N4CCC(NC5CC5)CC4)c4cn(C)nc34)nc2c(CN)n1 [Compound 392, N-[8-(aminomethyl)-6-methyl-imidazo[1,2-a]-pyrazin-2-yl]-4-[4-(cyclopropylamino)-1-piperidyl]-6-fluoro-2-methyl-indazole-7-carboxamide]",> 10 µM,> 10 µM,1 to 10 µM,1 to 10 µM,> 10 µM,1 to 10 µM,> 10 µM
"Cc1cn2cc(NC(=O)c3c(F)cc(N4CCC(NC5CC5)CC4)c4cn(C)nc34)nc2c(CNS(C)(=O)=O)n1 [Compound 393, 4-(4-(cyclopropylamino)piperidin-1-yl)-6-fluoro-2-methyl-N-(6-methyl-8-(methylsulfonamidomethyl)imidazo[1,2-a]pyrazin-2-yl)-2H-indazole-7-carboxamide 2,2,2-trifluoroacetate]",> 10 µM,> 10 µM,0.1 to 1 µM,0.1 to 1 µM,> 10 µM,0.1 to 1 µM,1 to 10 µM
"CCNC1CCN(c2ncc(C(=O)Nc3cn4cc(C)nc(C)c4n3)c3nn(C)cc23)CC1 [Compound 394, N-(6,8-dimethylimidazo[1,2-a]pyrazin-2-yl)-4-[4-(ethylamino)-1-piperidyl]-2-methyl-pyrazolo-[4,3-c]-pyridine-7-carboxamide]",1 to 10 µM,1 to 10 µM,< 0.1 µM,0.1 to 1 µM,1 to 10 µM,0.1 to 1 µM,> 10 µM
"COc1cc2nc(C)cn2cc1NC(=O)c1c(F)cc(N2CCC(NC3CC3)CC2)c2cn(C)nc12 [Compound 395, 4-[4-(cyclopropylamino)-1-piperidyl]-6-fluoro-N-(7-methoxy-2-methyl-imidazo[1,2-a]pyridin-6-yl)-2-methyl-indazole-7-carboxamide]",> 10 µM,> 10 µM,< 0.1 µM,0.1 to 1 µM,> 10 µM,0.1 to 1 µM,0.1 to 1 µM
"COc1cc2nn(C)cc2cc1NC(=O)c1c(F)cc(N2CCC(NC3CC3)CC2)c2cn(C)nc12 [Compound 396, 4-[4-(cyclopropylamino)-1-piperidyl]-6-fluoro-N-(6-methoxy-2-methyl-indazol-5-yl)-2-methyl-indazole-7-carboxamide]",0.1 to 1 µM,0.1 to 1 µM,< 0.1 µM,< 0.1 µM,0.1 to 1 µM,< 0.1 µM,< 0.1 µM
"COc1c(NC(=O)c2c(F)cc(N3CCC(NC4CC4)CC3)c3cn(C)nc23)cn2cc(C)nc2c1C [Compound 397, 4-[4-(cyclopropylamino)-1-piperidy1]-6-fluoro-N-(7-methoxy-2,8-dimethyl-imidazo[1,2-a]pyridin-6-y1)-2-methyl-indazole-7-carboxamide]",> 10 µM,> 10 µM,1 to 10 µM,1 to 10 µM,> 10 µM,1 to 10 µM,1 to 10 µM
"COc1nc2nc(C)cn2cc1NC(=O)c1c(F)cc(N2CCC(NC3CC3)CC2)c2cn(C)nc12 [Compound 398, 4-[4-(cyclopropylamino)-1-piperidy1]-6-fluoro-N-(7-methoxy-2-methyl-imidazo-[1,2-a]pyrimidin-6-yl)-2-methyl-indazole-7-carboxamide]",1 to 10 µM,1 to 10 µM,< 0.1 µM,< 0.1 µM,1 to 10 µM,< 0.1 µM,0.1 to 1 µM
Cc1cn2cc(NC(=O)c3c(F)cc(N4CCC(NC5CC5)CC4)c4cn(C)nc34)cc(Oc3ccccn3)c2n1 [Compound 399],1 to 10 µM,1 to 10 µM,< 0.1 µM,0.1 to 1 µM,1 to 10 µM,0.1 to 1 µM,0.1 to 1 µM
"CC(=O)NCc1nc(C)cn2cc(NC(=O)c3c(F)cc(N4CCC(NC5CC5)CC4)c4cn(C)nc34)nc12 [Compound 400, N-(8-(acetamido-methyl)-6-methylimidazo [1,2-a]-pyrazin-2-yl)-4-(4-(cyclopropylamino)-piper-idin-1-yl)-6-fluoro-2-meth-yl-2H-indazole-7-carbox-amide 2,2,2-trifluoro-acetate]",> 10 µM,> 10 µM,1 to 10 µM,1 to 10 µM,> 10 µM,1 to 10 µM,> 10 µM
"Cc1nc(CN)cn2cc(NC(=O)c3c(F)cc(N4CCC(NC5CC5)CC4)c4cn(C)nc34)nc12 [Compound 401, N-[6-(aminomethyl)-8-methyl-imidazo[1,2-a]pyrazin-2-yl]-4-[4-(cyclopropylamino)-1-piperidyl]-6-fluoro-2-methyl-indazole-7-carboxamide]",> 10 µM,> 10 µM,1 to 10 µM,1 to 10 µM,> 10 µM,1 to 10 µM,> 10 µM
"CCNC1CCN(c2cc(F)c(C(=O)Nc3nc4c(C)nc(C)cc4n3C)c3nn(C)cc23)CC1 [Compound 402, 4-(4-(ethylamino)-piperidin-1-yl)-6-fluoro-2-methyl-N-(1,4,6-trimethyl-1H-imidazo[4,5-c]pyridin-2-yl)-2H-indazole-7-carboxamide bis(2,2,2-trifluoroacetate)]",> 10 µM,> 10 µM,> 10 µM,> 10 µM,> 10 µM,> 10 µM,> 10 µM
"Cc1c2cc(NC(=O)c3c(F)cc(N4CCC(NC5CC5)CC4)c4cn(C)nc34)cc(F)c2nn1C [Compound 403, 4-[4-(cyclopropyl-amino)-1-piperidyl]-6-fluoro-N-(7-fluoro-2,3-dimethyl-indazol-5-y1)-2-methyl-indazole-7-carboxamide]",> 10 µM,> 10 µM,> 10 µM,> 10 µM,> 10 µM,> 10 µM,0.1 to 1 µM
"Cc1cn2cc(NC(=O)c3c(F)cc(N4CCC(NC5CC5)CC4)c4cn(C)nc34)nc2cn1 [Compound 404, 4-(4-(cyclopropylamino)-piperidin-1-yl)-6-fluoro-2-methyl-N-(6-methylimid-azo-[1,2-a]pyrazin-2-yl)-2H-indazole-7-carbox-amide 2,2,2-trifluoro-acetate]",1 to 10 µM,> 10 µM,< 0.1 µM,< 0.1 µM,> 10 µM,< 0.1 µM,0.1 to 1 µM
"COc1c(NC(=O)c2c(F)cc(N3CCC(NC4CC4)CC3)c3cn(C)nc23)cc2cn(C)nc2c1F [Compound 405, 4-[4-(cyclopropylamino)-1-piperidyl]-6-fluoro-N-(7-fluoro-6-methoxy-2-methyl-indazol-5-yl)-2-methyl-indazole-7-carboxamide]",0.1 to 1 µM,0.1 to 1 µM,< 0.1 µM,< 0.1 µM,0.1 to 1 µM,< 0.1 µM,< 0.1 µM
"CCOc1cc2nc(C)cn2cc1NC(=O)c1c(F)cc(N2CCC(NC3CC3)CC2)c2cn(C)nc12 [Compound 406, 4-[4-(cyclopropylamino)-1-piperidyl]-N-(7-ethoxy-2-methyl-imidazo[1,2-a]pyridin-6-yl)-6-fluoro-2-methyl-indazole-7-carboxamide]",1 to 10 µM,1 to 10 µM,0.1 to 1 µM,0.1 to 1 µM,1 to 10 µM,0.1 to 1 µM,0.1 to 1 µM
